Literature values as cited in patent US20120010144A1, “Peg-albumin composition having at least one protected thiol region as a platform for medications” (priority 2009, published 2012).

Conditions: soluble in water (hydrophilic) or in lipid (hydrophobic)

Row | Compound | Solubility
1 | COc1c(O)c(C)c(C/C=C(\C)CC/C=C(\C)CC/C=C(\C)CC/C=C(\C)CC/C=C(\C)CC/C=C(\C)CC/C=C(\C)CC/C=C(\C)CC/C=C(\C)CCC=C(C)C)c(O)c1OC [Ubiquinol] | Lipid
2 | N[C@@H](CCC(=O)N[C@@H](CS)C(=O)NCC(=O)O)C(=O)O [Glutathione] | Water
3 | O=c1[nH]c(=O)c2[nH]c(=O)[nH]c2[nH]1 [Uric Acid] | Water
4 | Cc1c(C)c2c(c(C)c1O)CC[C@@](C)(CCC[C@H](C)CCC[C@H](C)CCCC(C)C)O2 [A-Tocopherol] | Lipid
5 | Carotenes | Lipid
